TGI data for ten molecules are collected here from PubChem BioAssay (NCI).

Experiment in all cases: growth of human tumour cells (NCI), 48 h
The subject of experiment [1] is T-47D breast.
The test system of experiment [2] is A549 NSCLC.
The test system of experiment [3] is SNB-19 CNS.
The test system of experiment [4] is MDA-MB-231 breast.
Experiment [5] concerns IGROV1 ovarian.
The test system of experiment [6] is SF-268 CNS.
For experiment [7], the system named is EKVX NSCLC.
Experiment [8] deals with CAKI-1 renal.
In experiment [9] the test system is NCI/ADR-RES ovarian.
In experiment [10] the test system is MDA-MB-435.

Each structure is given as a SMILES string.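 48-hour exposure; five concentrations; linearly interpolated endpoints. TGI: total growth inhibition.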

Regarding `C1COCCOP2(N3CC3)=NP(N3CC3)(=NP(N3CC3)(N3CC3)=N2)OCCOCCO1` (stereo not given), the TGI in experiment [1], in experiment [2], in [3], in experiment [4], in experiment [5] and in [6] was > 100 µM each time. Moreover, the TGI in experiment [7], in [8], in experiment [9] and in experiment [10] was > 100 µM in each case.
Take `COc1cc(C2SC(N)=Nc3c2c(C)nn3C(=O)c2ccc(Cl)cc2)ccc1O` (stereo not given): the TGI in [1], in experiment [2], in experiment [3], in experiment [4], in [5] and in [6] was > 10 µM in each case. Moreover, the TGI in experiment [7], in [8], in [9] and in experiment [10] was > 10 µM in each case.
As for `C=[N+](CNC(=O)CNC(=O)C(Cc1ccccc1)NC(=O)OC(C)(C)C)C(=O)CNC(=O)C(Cc1ccccc1)NC(=O)OC(C)(C)C` (stereo not given), the TGI in experiment [1], in experiment [2], in experiment [3], in [4], in experiment [5] and in [6] was > 100 µM in each case. Moreover, the TGI in experiment [7], in [8], in experiment [9] and in experiment [10] was > 100 µM each time.
With `COC(=O)/C=C/N1CC1`, the TGI in experiment [1] was > 10 µM; in experiment [2] it was > 10 µM; in [3] it was > 10 µM; in [4], > 10 µM; in experiment [5], 6.15 µM; in experiment [6], > 10 µM. Moreover, the TGI in experiment [7], in [8], in experiment [9] and in experiment [10] was > 10 µM throughout.
As for `CC(=O)c1cccc(NC(=O)/C(=N\NC(=S)NN)C2C(=O)Nc3ccccc3S2=O)c1` (stereo not given), the TGI in [1], in experiment [2], in experiment [3], in experiment [4], in experiment [5] and in experiment [6] was > 100 µM each time. For the same molecule, the TGI in [7], in experiment [8], in [9] and in experiment [10] was > 100 µM each time.
For `CC1OC(n2cnc3c(N)nc(Cl)nc32)C(C)(O)C1O` (stereo not given), the TGI in [1], in experiment [2], in [3], in experiment [4], in [5] and in experiment [6] was > 25 µM each time. Besides, the TGI in experiment [7], in experiment [8], in experiment [9] and in [10] was > 25 µM each time.
`CCOC(=O)c1c[nH]c2cc3c(cc2c1=O)CCS3`: the TGI in experiment [1], in experiment [2], in experiment [3], in [4], in experiment [5] and in [6] was > 100 µM in each case. Moreover, the TGI in [7], in [8], in [9] and in experiment [10] was > 100 µM throughout.
For the molecule `Cc1ccc(NCc2nnc3c(-c4ccccc4)nc4ccccc4n23)cc1`, the TGI is 9.62 µM in experiment [1]; > 100 µM in [2]; > 100 µM in experiment [3]; > 100 µM in [4]; > 100 µM in experiment [5]; > 100 µM in experiment [6]. The TGI in experiment [7] was 84.1 µM; in experiment [8], > 100 µM; in [9], > 100 µM; in experiment [10] it was > 100 µM.
As to `CC1(C)O[C@@H](CP(c2ccc3ccccc3c2)c2ccc3ccccc3c2)[C@H](CP(c2ccc3ccccc3c2)c2ccc3ccccc3c2)O1`, the TGI in [1], in experiment [2], in experiment [3], in experiment [4], in experiment [5] and in experiment [6] was > 100 µM in each case. Further, the TGI in experiment [7], in experiment [8], in experiment [9] and in experiment [10] was > 100 µM throughout.
`Fc1ccc(C(OCCN2CCC3CCC(C2)N3C/C=C/c2cccnc2)c2ccc(F)cc2)cc1` (stereo not given): the TGI in experiment [1] was determined as 31 µM; in [2] it was 25.4 µM; in [3], 29.6 µM; in experiment [4], 26.6 µM; in experiment [5] it was 27.1 µM; in experiment [6], 26.2 µM. Moreover, the TGI in experiment [7] amounted to 25 µM; in experiment [8], 26.1 µM; in experiment [9], 25.7 µM; in experiment [10], 24.3 µM.
